Measured values from US20240415804A1, “METHOD OF TREATING PANCREATIC CANCER” (University of South Florida, priority 2022, published 2024).

Columns and labels:
SHIP-1 [1] = experiment: SHIP-1 gene and protein expression in OPC mice; type: in vivo, mouse; conditions: API 25 mg/kg IP 3 times per week for 2-3 weeks, vs OPC mice
Method: The inventors reported recently that API reduced tumor growth in an orthotopic (O) mouse model of PC (OPC)^12, which is a more clinically relevant model^69. To investigate if API targets miR-155 and regulates SHIP-1 expression in the BM and tumor of an OPC mouse model, OPC mice were treated with API at a dose of 25 mg/kg (IP) 3 times per week for 2-3 weeks.
To generate orthotopic pancreatic models (OPC), anesthetized (1.5-3% isoflurane) mice were injected in the neck of the pancreas, via laparotomy^59, with sterile PBS (CTRL) or 1.25×10^4 Panc02 cells (OPC), in sterile 1×PBS. […]
(§1) Isolation of total RNA from digested pancreatic tumors and BM cells was performed using a RNeasy Mini Kit (Qiagen), according to the manufacturer's instructions. RT-PCR of quantified and normalized total RNA was performed using a High-Capacity cDNA RT Kit with an RNase Inhibitor (Applied Biosystems), according to the manufacturer's instructions. […]
Single-cell suspensions of BM, digested pancreatic tumors cells and UN-KC-6141 cells treated with API (40 μM) were lysed with radioimmunoprecipitation buffer (Sigma-Aldrich), quantified with a BCA Protein Assay kit (Thermo Fisher Scientific, Waltham, MA, USA), resolved by SDS-PAGE (Thermo Fisher Scientific) and transferred onto a nitrocellulose membrane as previously described. […]

SHIP-1 [2] = experiment: SHIP-1 gene and protein expression in tumors of KC-HPC mice; type: in vivo, mouse; conditions: API 25 mg/kg IP three times per week for 17 days, vs vehicle
Method: To build on these findings, the inventors then used a novel pancreatic cancer cell line, UN-KC-6141, that resembles human PC due to its expression of a mutated Kras and generated mice harboring these tumor cells, called KC-HPC mice. Such mice were treated with API at a dose of 25 mg/kg (IP) three times per week for 17 days. The inventors examined if API also targets miR-155 and regulates SHIP-1 in the tumors from KC-HPC mouse model.
All female C57BL/6 mice (6-8 weeks of age) described in this study were purchased from Envigo (Indianapolis, IN, USA) and were acclimatize for one week in a pathogen-free animal facility (University of South Florida (USF) vivarium) before injections with PC cells. To generate heterotopic pancreatic cancer (HPC) models, mice were subcutaneously injected with 1.5×10^5 murine Panc02 (HPC mice) or 5×10^6 murine UN-KC-6141 cells (KC-HPC mice), in sterile 1× phosphate buffer saline (PBS), in the lower ventral abdomen, while control (CTRL) mice received sterile 1×PBS. […]
as §1

O=c1cc(-c2ccc(O)cc2)oc2cc(O)cc(O)c12 [API, 40,5,7-Trihydroxyflavone, 5,7-Dihydroxy-2-(4-hydroxyphenyl)-4-benzopyrone]
significantly increased: SHIP-1 gene expression in BM (SHIP-1 [1]) | SHIP-1 protein expression in BM (SHIP-1 [1]) | SHIP-1 gene expression in tumor (SHIP-1 [2]) | SHIP-1 protein expression in tumor (SHIP-1 [2])
